Test results reported in PubChem BioAssay AID1745844 (Carcinogenic Potency Database (CPDB), 2022).
Where “and” joins values, the source holds several entries; their conditions need not be identical. Equal entries are not always repeated. Calls of active or inactive are those of the source. The rule behind the calls is not given here.

Tested on: rodent lifetime carcinogenesis bioassay, tumor incidence TD50
Assay: chronic cancer bioassays in animals – CPDB, compiled studies (AID 1745844)

ClC=C(Cl)Cl was tested, and the carcinogen call (hamster, strain Syrian Golden, females, inhaled, site: any site (literature study), lesion: benign tumor, dosed 78 weeks, study length 130 weeks) was “negative (inactive)”, the TD50 (hamster, strain Syrian Golden, females, inhaled, site: any site (literature study), lesion: malignant tumor, dosed 78 weeks, study length 130 weeks) was 9220 mg/kg/day (inactive) and the carcinogen call (hamster, strain Syrian Golden, females, inhaled, site: liver, lesion: several types, types named in the paper, dosed 78 weeks, study length 130 weeks) was “negative (inactive)”. The TD50 (hamster, strain Syrian Golden, males, inhaled, site: any site (literature study), lesion: benign tumor, dosed 78 weeks, study length 130 weeks) was 5640 mg/kg/day (inactive), the carcinogen call (hamster, strain Syrian Golden, males, inhaled, site: any site (literature study), lesion: malignant tumor, dosed 78 weeks, study length 130 weeks) was “negative (inactive)” and the carcinogen call (hamster, strain Syrian Golden, males, inhaled, site: liver, lesion: several types, types named in the paper, dosed 78 weeks, study length 130 weeks) was “negative (inactive)”. The TD50 (mouse, strain B6C3F1, females, by gavage, site: any site (literature study), lesion: several types, types named in the paper, dosed 78 weeks, study length 90 weeks) was 1850 mg/kg/day, the TD50 (mouse, strain B6C3F1, females, by gavage, site: any site (literature study), lesion: several types, types named in the paper, dosed 103 weeks, study length 105 weeks) was 359 mg/kg/day and the TD50 (mouse, strain B6C3F1, females, by gavage, site: liver + multiple organs + spleen, lesion: malignant lymphoma, histiocytic type + malignant lymphoma, mixed type + malignant lymphoma, lymphocytic type + malignant lymph, dosed 103 weeks, study length 105 weeks) was 1350 mg/kg/day and 1470 mg/kg/day. For the same molecule, the TD50 (mouse, strain B6C3F1, females, by gavage, site: liver, lesion: hepatocellular adenoma + hepatocellular carcinoma + neoplastic nodule, dosed 78 weeks, study length 90 weeks) was 1930 mg/kg/day, the TD50 (mouse, strain B6C3F1, females, by gavage, site: liver, lesion: hepatocellular adenoma + hepatocellular carcinoma + neoplastic nodule, dosed 103 weeks, study length 105 weeks) was 411 mg/kg/day and the TD50 (mouse, strain B6C3F1, females, by gavage, site: liver, lesion: hepatocellular adenoma + hepatocellular carcinoma, dosed 103 weeks, study length 105 weeks) was 411 mg/kg/day. The TD50 (mouse, strain B6C3F1, females, by gavage, site: liver, lesion: hepatocellular adenoma, dosed 103 weeks, study length 105 weeks) was 579 mg/kg/day, the TD50 (mouse, strain B6C3F1, females, by gavage, site: liver, lesion: hepatocellular carcinoma, dosed 78 weeks, study length 90 weeks) was 1930 mg/kg/day and the TD50 (mouse, strain B6C3F1, females, by gavage, site: liver, lesion: hepatocellular carcinoma, dosed 103 weeks, study length 105 weeks) was 673 mg/kg/day. The TD50 (mouse, strain B6C3F1, females, by gavage, site: lung, lesion: alveolar/bronchiolar adenoma + alveolar/bronchiolar carcinoma, dosed 78 weeks, study length 90 weeks) was 4350 mg/kg/day, the TD50 (mouse, strain B6C3F1, females, by gavage, site: lung, lesion: alveolar/bronchiolar adenoma + alveolar/bronchiolar carcinoma, dosed 103 weeks, study length 105 weeks) was 3850 mg/kg/day and the TD50 (mouse, strain B6C3F1, females, by gavage, site: lung, lesion: alveolar/bronchiolar adenoma, dosed 103 weeks, study length 105 weeks) was 2780 mg/kg/day. It also gave a TD50 (mouse, strain B6C3F1, females, by gavage, site: multiple organs, lesion: malignant lymphoma, lymphocytic type, dosed 103 weeks, study length 105 weeks) of 4880 mg/kg/day, a TD50 (mouse, strain B6C3F1, females, inhaled, site: any site (literature study), lesion: malignant tumor, dosed 78 weeks, study length 154 weeks) of 2080 mg/kg/day and a TD50 (mouse, strain B6C3F1, females, inhaled, site: any site (literature study), lesion: several types, types named in the paper, dosed 78 weeks, study length 154 weeks) of 1320 mg/kg/day. It also gave a TD50 (mouse, strain B6C3F1, females, inhaled, site: liver, lesion: hepatoma, dosed 78 weeks, study length 154 weeks) of 13600 mg/kg/day, a TD50 (mouse, strain B6C3F1, females, inhaled, site: lung, lesion: one or several types, types not named, dosed 78 weeks, study length 154 weeks) of 6320 mg/kg/day and a TD50 (mouse, strain B6C3F1, females, inhaled, site: thyroid gland, lesion: adenoma, dosed 78 weeks, study length 154 weeks) of 2.23e+06 mg/kg/day. The TD50 (mouse, strain B6C3F1, females, inhaled, site: thyroid gland, lesion: carcinoma, dosed 78 weeks, study length 154 weeks) was 131000 mg/kg/day, the TD50 (mouse, strain B6C3F1, males, by gavage, site: Harderian gland, lesion: adenoma, NOS + acinar-cell adenoma + papillary adenoma, dosed 103 weeks, study length 105 weeks) was 3830 mg/kg/day and the TD50 (mouse, strain B6C3F1, males, by gavage, site: any site (literature study), lesion: several types, types named in the paper, dosed 78 weeks, study length 90 weeks) was 553 mg/kg/day. For the same molecule, the TD50 (mouse, strain B6C3F1, males, by gavage, site: any site (literature study), lesion: several types, types named in the paper, dosed 103 weeks, study length 105 weeks) was 332 mg/kg/day, the TD50 (mouse, strain B6C3F1, males, by gavage, site: liver, lesion: hepatocellular adenoma + hepatocellular carcinoma + neoplastic nodule, dosed 78 weeks, study length 90 weeks) was 421 mg/kg/day and the TD50 (mouse, strain B6C3F1, males, by gavage, site: liver, lesion: hepatocellular adenoma + hepatocellular carcinoma + neoplastic nodule, dosed 103 weeks, study length 105 weeks) was 239 mg/kg/day. It also gave a TD50 (mouse, strain B6C3F1, males, by gavage, site: liver, lesion: hepatocellular adenoma + hepatocellular carcinoma, dosed 103 weeks, study length 105 weeks) of 239 mg/kg/day, a TD50 (mouse, strain B6C3F1, males, by gavage, site: liver, lesion: hepatocellular adenoma, dosed 103 weeks, study length 105 weeks) of 855 mg/kg/day and a TD50 (mouse, strain B6C3F1, males, by gavage, site: liver, lesion: hepatocellular carcinoma, dosed 78 weeks, study length 90 weeks) of 421 mg/kg/day. It also gave a TD50 (mouse, strain B6C3F1, males, by gavage, site: liver, lesion: hepatocellular carcinoma, dosed 103 weeks, study length 105 weeks) of 294 mg/kg/day, a TD50 (mouse, strain B6C3F1, males, by gavage, site: lung, lesion: alveolar/bronchiolar adenoma + alveolar/bronchiolar carcinoma, dosed 78 weeks, study length 90 weeks) of 7160 mg/kg/day and a TD50 (mouse, strain B6C3F1, males, by gavage, site: lung, lesion: alveolar/bronchiolar adenoma + alveolar/bronchiolar carcinoma, dosed 103 weeks, study length 105 weeks) of 4250 mg/kg/day. It also gave a TD50 (mouse, strain B6C3F1, males, in drinking water, site: liver, lesion: hepatocellular adenoma, dosed 61 weeks, study length 61 weeks) of 502 mg/kg/day, a TD50 (mouse, strain B6C3F1, males, in drinking water, site: liver, lesion: hepatocellular carcinoma, dosed 61 weeks, study length 61 weeks) of 16 mg/kg/day and a TD50 (mouse, strain B6C3F1, males, inhaled, site: liver, lesion: angiosarcoma, dosed 78 weeks, study length 135 weeks) of 77000 mg/kg/day. For the same molecule, the TD50 (mouse, strain B6C3F1, males, inhaled, site: liver, lesion: hepatoma, dosed 78 weeks, study length 135 weeks) was 4530 mg/kg/day, the TD50 (mouse, strain B6C3F1, males, inhaled, site: liver, lesion: hepatoma, dosed 78 weeks, study length 154 weeks) was 5030 mg/kg/day and the TD50 (mouse, strain Ha/ICR, females, by gavage, site: forestomach, lesion: one or several types, types not named, dosed 88 weeks, study length 88 weeks) was 41.3 mg/kg/day (inactive). The TD50 (mouse, strain Ha/ICR, males, by gavage, site: forestomach, lesion: one or several types, types not named, dosed 88 weeks, study length 88 weeks) was 16.9 mg/kg/day (inactive), the TD50 (mouse, strain Han:NMRI, females, inhaled, site: all sites, lesion: malignant lymphoma, dosed 78 weeks, study length 130 weeks) was 846 mg/kg/day and the carcinogen call (mouse, strain Han:NMRI, females, inhaled, site: any site (literature study), lesion: benign tumor, dosed 78 weeks, study length 130 weeks) was “negative (inactive)”. For the same molecule, the TD50 (mouse, strain Han:NMRI, females, inhaled, site: any site (literature study), lesion: malignant tumor, dosed 78 weeks, study length 130 weeks) was 573 mg/kg/day (inactive), the carcinogen call (mouse, strain Han:NMRI, females, inhaled, site: liver, lesion: several types, types named in the paper, dosed 78 weeks, study length 130 weeks) was “negative (inactive)” and the carcinogen call (mouse, strain Han:NMRI, females, inhaled, site: lung, lesion: alveolar/bronchiolar adenoma, dosed 78 weeks, study length 130 weeks) was “negative (inactive)”. The carcinogen call (mouse, strain Han:NMRI, females, inhaled, site: lung, lesion: alveolar/bronchiolar carcinoma, dosed 78 weeks, study length 130 weeks) was “negative (inactive)”, the carcinogen call (mouse, strain Han:NMRI, males, inhaled, site: all sites, lesion: malignant lymphoma, dosed 78 weeks, study length 130 weeks) was “negative (inactive)” and the carcinogen call (mouse, strain Han:NMRI, males, inhaled, site: any site (literature study), lesion: benign tumor, dosed 78 weeks, study length 130 weeks) was “negative (inactive)”. For the same molecule, the carcinogen call (mouse, strain Han:NMRI, males, inhaled, site: any site (literature study), lesion: malignant tumor, dosed 78 weeks, study length 130 weeks) was “negative (inactive)”, the carcinogen call (mouse, strain Han:NMRI, males, inhaled, site: liver, lesion: hepatocellular adenoma, dosed 78 weeks, study length 130 weeks) was “negative (inactive)” and the carcinogen call (mouse, strain Han:NMRI, males, inhaled, site: liver, lesion: hepatocellular carcinoma, dosed 78 weeks, study length 130 weeks) was “negative (inactive)”. For the same molecule, the carcinogen call (mouse, strain Han:NMRI, males, inhaled, site: liver, lesion: hepatoma, benign, dosed 78 weeks, study length 130 weeks) was “negative (inactive)”, the carcinogen call (mouse, strain Han:NMRI, males, inhaled, site: lung, lesion: alveolar/bronchiolar adenoma, dosed 78 weeks, study length 130 weeks) was “negative (inactive)” and the carcinogen call (mouse, strain Han:NMRI, males, inhaled, site: lung, lesion: malignant tumor, dosed 78 weeks, study length 130 weeks) was “negative (inactive)”. It also gave a TD50 (mouse, strain ICR, females, inhaled, site: any site (literature study), lesion: several types, types named in the paper, dosed 104 weeks, study length 107 weeks) of 1900 mg/kg/day, a TD50 (mouse, strain ICR, females, inhaled, site: liver, lesion: adenoma, dosed 104 weeks, study length 107 weeks) of 42300 mg/kg/day and a TD50 (mouse, strain ICR, females, inhaled, site: lung, lesion: adenocarcinoma, dosed 104 weeks, study length 107 weeks) of 3380 mg/kg/day. For the same molecule, the TD50 (mouse, strain ICR, females, inhaled, site: lung, lesion: several types, types named in the paper, dosed 104 weeks, study length 107 weeks) was 3370 mg/kg/day, the TD50 (mouse, strain Swiss, females, inhaled, site: any site (literature study), lesion: malignant tumor, dosed 78 weeks, study length 145 weeks) was 9840 mg/kg/day and the TD50 (mouse, strain Swiss, females, inhaled, site: any site (literature study), lesion: several types, types named in the paper, dosed 78 weeks, study length 145 weeks) was 9190 mg/kg/day. The TD50 (mouse, strain Swiss, females, inhaled, site: liver, lesion: hepatoma, dosed 78 weeks, study length 145 weeks) was 121000 mg/kg/day, the TD50 (mouse, strain Swiss, females, inhaled, site: lung, lesion: one or several types, types not named, dosed 78 weeks, study length 145 weeks) was 35400 mg/kg/day and the TD50 (mouse, strain Swiss, males, inhaled, site: any site (literature study), lesion: malignant tumor, dosed 78 weeks, study length 145 weeks) was 6320 mg/kg/day.
